Paper PMC9820167, “Design and Synthesis of Conformationally Flexible Scaffold as Bitopic Ligands for Potent D3-Selective Antagonists” (International Journal of Molecular Sciences, 2022)
Like-named read-outs stand apart in the source and are kept apart here.

Tests used:
human D3 receptors [1] = biological target: T1, human D3 receptors (Homo sapiens, UniProt P35462); assay: Radioligand binding assay with [125I]IABN, D3 receptor; set-up: expressed in transfected cells; host or cells: HEK293; settings: for Ki: [125I]IABN, D3 receptors expressed in HEK cells, mean ± SEM, three experiments, HCl salts, read-out: Ki ± SEM (nM) D3; for D2/D3: selectivity ratio of Ki D2 / Ki D3 (fold)
Description: (§1) Two different assays were used to evaluate the properties of the analogs described above. The receptor binding affinity was measured by radioligand binding assays using [^125I]IABN with D2 or D3 receptors highly expressed HEK293 cells. The functional activity of the analogs was determined using a β-arrestin recruitment assay. The assay was initially conducted in agonist binding mode to confirm that they function as antagonists at the D3 receptor. Once this efficacy was confirmed, the assay was conducted in antagonist mode to determine the ability of the antagonist to compete with dopamine at the D3 receptor. The results of the antagonist mode assay are reported as IC50 values.
(§2) Ki values for D2 and D3 receptors were measured using [^125I]IABN in human D2 and D3 receptors expressed in HEK cells, respectively. A filtration binding assay was used to characterize membrane-associated receptor binding properties. The details for the procedures were described in the literature.

human D2 receptors = biological target: T2, human D2 receptors (Homo sapiens, UniProt P14416); assay: Radioligand binding assay with [125I]IABN, D2 receptor; settings: [125I]IABN, D2 receptors expressed in HEK cells; mean ± SEM, three experiments; HCl salts; read-out: Ki ± SEM (nM) D2
T2 construct: expressed in transfected cells; host or cells: HEK293
Description: Two different assays were used to evaluate the properties of the analogs described above. The receptor binding affinity was measured by radioligand binding assays using [^125I]IABN with D2 or D3 receptors highly expressed HEK293 cells. The functional activity of the analogs was determined using a β-arrestin recruitment assay. […] The results of the antagonist mode assay are reported as IC50 values.
as §2

human D3 receptors [2] = biological target: T1, human D3 receptors; assay: β-arrestin recruitment assay (antagonist mode, competition with dopamine); type: cell-based; set-up: expressed in transfected cells; settings: for Emax: percentage of the maximum inhibition of dopamine at EC80 concentration, read-out: Imax (% Control); for IC50: potency for D3 receptors, CHO-K1 cells, vs 30 nM (EC80) dopamine, mean ± SD, three experiments, read-out: IC50
Description: as §1
CHO-K1 cells which were overexpressed human D3 receptors were cultured in assaycomplete^TM cell culture kit 107. Cells were seeded at a density of 25,000 cells per well of 96-well plate, and incubated at 5% CO2, 37 °C. Two days later, test compounds were dissolved in DMSO, and diluted with 11-point series in phosphate-buffered saline (PBS). Prepared compounds were added to the cells, and it was incubated for 30 min at 5% CO2, 37 °C. Then, cells were treated with 30 nM (EC80) of dopamine, and the plate was incubated another 90 min. PathHunter^TM detection reagent was added to each well, and then plate was incubated for 80 min at RT in the dark. The chemiluminescent signal was measured by PerkinElmer Enspire plate reader (PerkinElmer, Boston, MA). Data were analyzed by Prism followed by non-linear regression.

D2 receptors = settings: cited from earlier work

T2 sequence (P14416 whole entry): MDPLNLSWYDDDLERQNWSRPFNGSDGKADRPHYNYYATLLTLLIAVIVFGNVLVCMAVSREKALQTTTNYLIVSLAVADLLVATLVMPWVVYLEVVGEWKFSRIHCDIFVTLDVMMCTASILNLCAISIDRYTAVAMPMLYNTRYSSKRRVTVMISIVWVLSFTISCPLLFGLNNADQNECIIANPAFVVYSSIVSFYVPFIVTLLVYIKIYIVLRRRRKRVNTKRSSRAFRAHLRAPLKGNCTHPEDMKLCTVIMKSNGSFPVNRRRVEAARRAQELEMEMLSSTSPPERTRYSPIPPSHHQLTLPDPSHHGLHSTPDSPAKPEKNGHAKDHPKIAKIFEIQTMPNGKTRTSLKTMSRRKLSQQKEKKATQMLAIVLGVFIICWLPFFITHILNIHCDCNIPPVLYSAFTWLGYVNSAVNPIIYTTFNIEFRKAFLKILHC
T1 sequence (P35462 whole entry): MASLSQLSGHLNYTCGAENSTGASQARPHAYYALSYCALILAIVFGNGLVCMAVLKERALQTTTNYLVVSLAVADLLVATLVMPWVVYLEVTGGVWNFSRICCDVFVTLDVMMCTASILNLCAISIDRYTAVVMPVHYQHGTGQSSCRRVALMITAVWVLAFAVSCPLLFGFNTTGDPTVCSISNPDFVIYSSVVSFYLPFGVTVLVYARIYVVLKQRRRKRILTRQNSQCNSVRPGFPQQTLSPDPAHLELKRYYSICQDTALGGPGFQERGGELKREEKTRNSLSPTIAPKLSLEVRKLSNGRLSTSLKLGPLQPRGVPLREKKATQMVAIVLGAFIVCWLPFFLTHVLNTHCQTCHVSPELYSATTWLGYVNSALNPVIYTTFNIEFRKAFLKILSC

Ki (human D3 receptors [1]) [nM]	D2/D3 (human D3 receptors [1])	Ki (human D2 receptors) [nM]	Emax (human D3 receptors [2]) [%]	IC50 (human D3 receptors [2]) [nM]	Structure (SMILES)	Ki (D2 receptors; read-out: Ki D2) [nM]	Ki (D2 receptors; read-out: Ki for D2/D3 receptors (D2)) [nM]
22.2 ± 1.8	4.6	89.7 ± 3.6	–	–	CCN(CCCCCSc1nnc(-c2ccccc2)n1C)CCNC(=O)c1cc(Br)cc(OC)c1OC [11b, 5-Bromo-N-(2-(ethyl(5-((4-methyl-5-phenyl-4H-1,2,4-triazol-3-yl)thio)pentyl)amino)ethyl)-2,3-dimethoxybenzamide]	–	–
1630 ± 165	3.3	5420 ± 1040	98 ± 5.6	> 1000	CCN(CCCCN(C)C)CCNC(=O)c1cc(Br)cc(OC)c1OC [6c, 5-Bromo-N-(2-((4-(dimethylamino)butyl)(ethyl)amino)ethyl)-2,3-dimethoxybenzamide]	–	–
1240 ± 438	2.3	2810 ± 571	98.4 ± 2.9	430 ± 467	CCN(CCCCCN(C)C)CCNC(=O)c1cc(CCCF)cc(OC)c1OC [6b, N-(2-((5-(Dimethylamino)pentyl)(ethyl)amino)ethyl)-5-(3-fluoropropyl)-2,3-dimethoxybenzamide]	–	–
8 ± 0.8	12.9	103 ± 14	70.8 ± 7.3	104 ± 136	CCN(CCCCNC(=O)c1ccc(-c2cccs2)cc1)CCNC(=O)c1cc(Br)cc(OC)c1OC [9b, 5-Bromo-N-(2-(ethyl(4-(4-(thiophen-2-yl)benzamido)butyl)amino)ethyl)-2,3-dimethoxybenzamide]	–	–
–	–	–	–	–	C=CCN1CCC[C@H]1CNC(=O)c1cc(CCCF)cc(OC)c1OC [fallypride]	0.02	–
141 ± 26	3.2	449 ± 90	94 ± 6.4	152 ± 185	CCN(CCCCCN(C)C)CCNC(=O)c1cc(Br)cc(OC)c1OC [6d, 5-Bromo-N-(2-((5-(dimethylamino)pentyl)(ethyl)amino)ethyl)-2,3-dimethoxybenzamide]	–	–
–	–	–	–	–	CCN1CCC[C@H]1CNC(=O)c1cc(Br)cc(OC)c1OC [[^11C]FLB457, FLB457]	–	0.02
299 ± 101	1.9	574 ± 170	–	–	COc1cc(Br)cc(C(=O)NCCN(CCCNC(=O)c2ccc(-c3cccs3)cc2)Cc2ccc(F)cc2)c1OC [20c, 5-Bromo-N-(2-((4-fluorobenzyl)(3-(4-(thiophen-2-yl)benzamido)propyl)amino)ethyl)-2,3-dimethoxybenzamide]	–	–
125 ± 2	2.7	342 ± 23	–	–	CCN(CCCCSc1nnc(-c2ccccc2)n1C)CCNC(=O)c1cc(Br)cc(OC)c1OC [11a, 5-Bromo-N-(2-(ethyl(4-((4-methyl-5-phenyl-4H-1,2,4-triazol-3-yl)thio)butyl)amino)ethyl)-2,3-dimethoxybenzamide]	–	–
21.8 ± 5.1	–	89.2 ± 5.6	–	–	CCN(C)CCNC(=O)c1cc(Br)cc(OC)c1OC [compound 12, 5-Bromo-N-(2-(ethyl(methyl)amino)ethyl)-2,3-dimethoxybenzamide]	–	–
6.1 ± 0.6	53.7	327 ± 32	85.7 ± 13.1	2.7 ± 0.6	CCN(CCCNC(=O)c1ccncc1)CCNC(=O)c1cc(Br)cc(OC)c1OC [21f, N-(3-((2-(5-Bromo-2,3-dimethoxybenzamido)ethyl)(ethyl)amino)propyl)isonicotinamide]	–	–
13.2 ± 0.5	39.8	–	75.2 ± 4.8	19.6 ± 23.7	CCN(CCCNC(=O)c1ccnc2ccccc12)CCNC(=O)c1cc(Br)cc(OC)c1OC [21b, N-(3-((2-(5-Bromo-2,3-dimethoxybenzamido)ethyl)(ethyl)amino)propyl)quinoline-4-carboxamide]	–	–
11.2 ± 1.4	22.1	248 ± 19	73.8 ± 14.9	4.1 ± 2.1	CCN(CCCNC(=O)c1cccc(N(C)C)c1)CCNC(=O)c1cc(Br)cc(OC)c1OC [21h, 5-Bromo-N-(2-((3-(3-(dimethylamino)benzamido)propyl)(ethyl)amino)ethyl)-2,3-dimethoxybenzamide]	–	–
5.8 ± 1	46.7	243 ± 15	101 ± 7.9	51.6 ± 40.8	C=CCN(CCCNC(=O)c1ccc(-c2cccs2)cc1)CCNC(=O)c1cc(Br)cc(OC)c1OC [20b, N-(2-(Allyl(3-(4-(thiophen-2-yl)benzamido)propyl)amino)ethyl)-5-bromo-2,3-dimethoxybenzamide]	–	–
> 1000	–	> 1000	–	–	CCN(C)CCCNC(=O)c1ccc(-c2cccs2)cc1 [compound 14, N-(3-(Ethyl(methyl)amino)propyl)-4-(thiophen-2-yl)benzamide]	–	–
1760 ± 942	2.6	4560 ± 2450	92.7 ± 5.4	> 1000	CCN(CCCCN(C)C)CCNC(=O)c1cc(CCCF)cc(OC)c1OC [6a, N-(2-((4-(Dimethylamino)butyl)(ethyl)amino)ethyl)-5-(3-fluoropropyl)-2,3-dimethoxybenzamide]	–	–
